Experimental data from patent publication US20260274861A1, “FUSED RING COMPOUND, PREPARATION METHOD THEREFOR AND MEDICINAL APPLICATION THEREOF” (JIANGSU HENGRUI PHARMACEUTICALS CO., LTD., priority 2022, published 2026).

Columns and labels:
Assay type in all cases: cell-based
GP2d cells = experiment: Inhibition of 3D proliferation of GP2d cells (CellTiter-Glo 3D); conditions: 120 h, 5 days
Experimental: (§1) The inhibitory effects of the compounds of the present disclosure on the KRAS target were evaluated by assessing the inhibitory effects of the compounds of the present disclosure on the 3D proliferation of GP2d and AGS cells.
(§2) GP2d cells were cultured in a complete culture medium, namely a DMEM/high glucose culture medium (Hyclone, SH30243.01) containing 10% fetal bovine serum (Corning, 35-076-CV). On the first day of the experiment, the GP2d cells were seeded into a 96-well low-adsorption plate (Corning, CLS7007-24EA) with a complete culture medium at a density of 1000 cells/well, with each well containing 90 μL of a cell suspension. The plate was centrifuged at 2000 rpm for 5 min at room temperature and then incubated overnight in a 37° C., 5% CO2 cell incubator.
(§3) The next day, the test compounds, serially diluted in a complete culture medium, were added at 10 μL/well. The final concentrations of the compounds for GP2d cells were 9 concentration points obtained by 5-fold serial dilution from 1 μM, and the final concentrations of the compounds for AGS cells were 9 concentration points obtained by 5-fold serial dilution from […]. A blank control containing 0.5% DMSO was set for both types of cells. The plates were incubated in a 37° C., 5% CO2 cell incubator for 5 days. On the seventh day, the 96-well cell culture plates were taken out, and 50 μL of the CellTiter-Glo® 3D Cell Viability Assay reagent (Promega, G^9682) was added to each well. The plates were shaken at room temperature in the dark for 25 min. The contents in the wells were pipetted for good uniformity, and 100 μL of the mixture was transferred from each well to a white impermeable 96-well plate (PerkinElmer, 6005290). The luminescence signal values were obtained using a multi-mode microplate reader (PerkinElmer, EnVision2105).

AsPC-1 cells = experiment: Inhibition of 3D proliferation of AsPC-1 cells (CellTiter-Glo 3D); conditions: Homo sapiens, ASPC1, 120 h, 5 days
Experimental: On the first day of the experiment, well-grown AsPC-1 cells with 70%-80% confluency were digested and resuspended in an RPMI 1640 culture medium (Hyclone, SH30809.01) containing 10% FBS, and the cell density was adjusted to the desired level. The cell suspension was added to a U-shaped low-adsorption 96-well plate (Corning, CLS7007-24EA) at 90 μL/well, with a cell density of 1500 cells/well. The cell plate was centrifuged at 2500 rpm for 5 min and then incubated overnight in a 37° C., 5% CO2 incubator. The next day, 20 mM test compounds dissolved in DMSO were diluted to an initial concentration of 2 mM and then serially diluted 5-fold, and a total of 9 concentration points were obtained. Control wells were set using DMSO. The serially diluted compounds were then further diluted 20-fold with a culture medium. The test compounds, diluted with the culture medium, were added to the cell plate at 10 μL/well, with the final concentrations of the compounds being 9 concentration points obtained by 5-fold serial dilution from an initial concentration of 10 μM. Cell wells containing 0.5% DMSO were set as vehicle control wells, and wells containing only the culture medium and 0.5% DMSO were set as blank control wells. A duplicate well was set for each concentration of the compounds and the control wells, with the final concentration of DMSO in each well being 0.5%. The cell plate was centrifuged at 2500 rpm for 3 min and then incubated in a 37° C., 5% CO2 incubator for 5 days. On the seventh day, the 96-well cell culture plate was taken out, and 50 μL of the CellTiter-Glo® Luminescent 3D Cell Viability Assay reagent (Promega, G^9683) was added to each well. The plates were shaken at room temperature in the dark for 25 min. The contents in the wells were pipetted up and down for good uniformity, and then 100 μL of the mixture was transferred from each well to a white impermeable OptiPlate™-96-well plate (PerkinElmer, 6005290). The luminescence signal values were obtained using a multi-mode microplate reader (PerkinElmer, EnVision2105).
The inhibition rate was calculated using the formula: inhibition rate=(luminescence valuevehicle control well−luminescence valuetest compound)/(luminescence valuevehicle control well−luminescence valueblank control well)×100%. Curves were plotted using GraphPad Prism software based on the various concentrations of the compounds and the corresponding inhibition rates, and IC50 values for the compounds were calculated.

AGS cells = experiment: Inhibition of 3D proliferation of AGS cells (CellTiter-Glo 3D); conditions: Homo sapiens, 120 h, 5 days
Experimental: as §1
as §2, with “AGS” for “GP2d”, “an RPM11640” for “a DMEM/high glucose culture”, “SH30809.01)” for “SH30243.01)”
as §3

Structure (SMILES) | IC50 (GP2d cells) | IC50 (AsPC-1 cells) | IC50 (AGS cells)
CCc1c(F)ccc2cc(O)cc(-c3nc4c5c(nc(OCC6(CN7CCOCC7)CC6)nc5c3F)N3C[C@H]5CC[C@H](N5)[C@H]3[C@H](C)O4)c12 [Example 5, 5-Ethyl-6-fluoro-4-((5S,5aS,6S,9R)-1-fluoro-5-methyl-12-((1-(morpholinomethyl)cyclopropyl)methoxy)-5a,6,7,8,9,10-hexahydro-5H-4-oxa-3,10a,11,13,14-pentaaza-6,9-methanonaphtho[1,8-ab]heptalen-2-yl)naphthalen-2-ol] | 0.9 nM | 5.7 nM | 8.7 nM
CCc1c(F)ccc2cc(O)cc(-c3nc4c5c(nc(OCC6(CN7CC/C(=C\F)C7)CC6)nc5c3F)N3C[C@H]5CC[C@H](N5)[C@H]3[C@H](C)O4)c12 [Example 11, 5-Ethyl-6-fluoro-4-((5S,5aS,6S,9R)-1-fluoro-12-((1-(((E)-3-(fluoromethylene)pyrrolidin-1-yl)methyl)cyclopropyl)methoxy)-5-methyl-5a,6,7,8,9,10-hexahydro-5H-4-oxa-3,10a,11,13,14-pentaaza-6,9-methanonaphtho[1,8-ab]heptalen-2-yl)naphthalen-2-ol] | 0.7 nM |  | 
CCc1c(F)ccc2cc(O)cc(-c3nc4c5c(nc(OCC6(CN7CC8CC(=C(F)F)CC8C7)CC6)nc5c3F)N3C[C@H]5CC[C@H](N5)[C@H]3[C@H](C)O4)c12 (stereo partly drawn) [Example 14] | 1.6 nM |  | 
C=C1CN2CC(=C)CC2(COc2nc3c4c(nc(-c5cc(O)cc6ccc(F)c(CC)c56)c(F)c4n2)O[C@@H](C)[C@@H]2[C@@H]4CC[C@H](CN32)N4)C1 [Example 17, 4-((5S,5aS,6S,9R)-12-((2,6-Dimethylenetetrahydro-1H-pyrrolizin-7a(5H)-yl)methoxy)-1-fluoro-5-methyl-5a,6,7,8,9,10-hexahydro-5H-4-oxa-3,10a,11,13,14-pentaaza-6,9-methanonaphtho[1,8-ab]heptalen-2-yl)-5-ethyl-6-fluoronaphthalen-2-ol] | 0.9 nM |  | 
CCc1c(F)ccc2cc(O)cc(-c3nc4c5c(nc(OCC67CCCN6CC(=C(F)F)C7)nc5c3F)N3C[C@H]5CC[C@H](N5)[C@H]3[C@H](C)O4)c12 (stereo partly drawn) [Example 18, 4-((5S,5aS,6S,9R)-12-((2-(Difluoromethylene)tetrahydro-1H-pyrrolizin-7a(5H)-yl)methoxy)-1-fluoro-5-methyl-5a,6,7,8,9,10-hexahydro-5H-4-oxa-3,10a,11,13,14-pentaaza-6,9-methanonaphtho[1,8-ab]heptalen-2-yl)-5-ethyl-6-fluoronaphthalen-2-ol] | 1.2 nM |  | 
CCc1c(F)ccc2cc(O)cc(-c3nc4c5c(nc(OCC6(CN7CCC(=CF)CC7)CC6)nc5c3F)N3C[C@H]5CC[C@H](N5)[C@H]3[C@H](C)O4)c12 [Example 23, 5-Ethyl-6-fluoro-4-((5S,5aS,6S,9R)-1-fluoro-12-((1-((4-(fluoromethylene)piperidin-1-yl)methyl)cyclopropyl)methoxy)-5-methyl-5a,6,7,8,9,10-hexahydro-5H-4-oxa-3,10a,11,13,14-pentaaza-6,9-methanonaphtho[1,8-ab]heptalen-2-yl)naphthalen-2-ol] | 0.2 nM | 7.9 nM | 
C[C@@H]1Oc2nc(-c3cc(N)cc(Cl)c3C(F)(F)F)c(F)c3nc(OCC4(CN5CCC(=CF)CC5)CC4)nc(c23)N2C[C@H]3CC[C@H](N3)[C@@H]12 [Example 36, 3-Chloro-5-((5S,5aS,6S,9R)-1-fluoro-12-((1-((4-(fluoromethylene)piperidin-1-yl)methyl)cyclopropyl)methoxy)-5-methyl-5a,6,7,8,9,10-hexahydro-5H-4-oxa-3,10a,11,13,14-pentaaza-6,9-methanonaphtho[1,8-ab]heptalen-2-yl)-4-(trifluoromethyl)aniline] | 0.06 nM | 0.2 nM | 0.9 nM
Cc1cc(N)c(F)c(-c2nc3c4c(nc(OCC5(CN6CCC(=CF)CC6)CC5)nc4c2F)N2C[C@H]4CC[C@H](N4)[C@H]2[C@H](C)O3)c1C(F)(F)F [Example 38, 2-Fluoro-3-((5S,5aS,6S,9R)-1-fluoro-12-((1-((4-(fluoromethylene)piperidin-1-yl)methyl)cyclopropyl)methoxy)-5-methyl-5a,6,7,8,9,10-hexahydro-5H-4-oxa-3,10a,11,13,14-pentaaza-6,9-methanonaphtho[1,8-ab]heptalen-2-yl)-5-methyl-4-(trifluoromethyl)aniline] | 0.07 nM | 1.7 nM | 5 nM
Cc1cc(N)c(F)c(-c2nc3c4c(nc(OCC5(CN6CCC(=C(F)F)CC6)CC5)nc4c2F)N2C[C@H]4CC[C@H](N4)[C@H]2[C@H](C)O3)c1C(F)(F)F [Example 40, 3-((5S,5aS,6S,9R)-12-((1-((4-(Difluoromethylene)piperidin-1-yl)methyl)cyclopropyl)methoxy)-1-fluoro-5-methyl-5a,6,7,8,9,10-hexahydro-5H-4-oxa-3,10a,11,13,14-pentaaza-6,9-methanonaphtho[1,8-ab]heptalen-2-yl)-2-fluoro-5-methyl-4-(trifluoromethyl)aniline] | 0.6 nM |  | 
C[C@@H]1Oc2nc(-c3ccc(F)c4sc(N)c(C#N)c34)c(F)c3nc(OCC4(CN5CCC(=C(F)F)CC5)CC4)nc(c23)N2C[C@H]3CC[C@H](N3)[C@@H]12 [Example 41, 2-Amino-4-((5S,5aS,6S,9R)-12-((1-((4-(difluoromethylene)piperidin-1-yl)methyl)cyclopropyl)methoxy)-1-fluoro-5-methyl-5a,6,7,8,9,10-hexahydro-5H-4-oxa-3,10a,11,13,14-pentaaza-6,9-methanonaphtho[1,8-ab]heptalen-2-yl)-7-fluorobenzo[b]thiophene-3-carbonitrile] | 0.4 nM | 3.7 nM | 
Cc1nc(N)cc(-c2nc3c4c(nc(OCC5(CN6CCC(=CF)CC6)CC5)nc4c2F)N2C[C@H]4CC[C@H](N4)[C@H]2[C@H](C)O3)c1C(F)(F)F [Example 42, 4-((5S,5aS,6S,9R)-1-Fluoro-12-((1-((4-(fluoromethylene)piperidin-1-yl)methyl)cyclopropyl)methoxy)-5-methyl-5a,6,7,8,9,10-hexahydro-5H-4-oxa-3,10a,11,13,14-pentaaza-6,9-methanonaphtho[1,8-ab]heptalen-2-yl)-6-methyl-5-(trifluoromethyl)pyridin-2-amine] | 0.21 nM | 1.8 nM | 5.2 nM
